Measured values reported in patent US12371428B2 (Exelixis, Inc., priority 2019, dated 2025).

Legend:
[1] = biological target: Mer (phospho-Mer, MERTK-transfected 293A cells) (Homo sapiens (Human), UniProt Q12866); experiment: Mer autophosphorylation ELISA in transient transfected 293A cells (Example H); format: cell-based; settings: cellular activity; Mer autophosphorylation ELISA in transient transfected 293A cells
Outline: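 MERTK-transfected 293A; 8-pt dose, 1 h, serum-free, 0.3% DMSO. Cold lysis with orthovanadate and protease/phosphatase inhibitors. Phospho-Mer by DuoSet IC ELISA vs phospho-Mer standard. IC50: 4-PL fit; DMSO = 100%, reference inhibitor = 0%.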

[2] = biological target: Human KDR (residues 790-1356) (Homo sapiens (Human), UniProt P35968); experiment: Human KDR kinase assay, HTRF KinEase (Example B-2); format: biochemical; settings: protocol of Example B-2 (other compounds)
Sequence of Human KDR (residues 790-1356) (P35968 790-1356): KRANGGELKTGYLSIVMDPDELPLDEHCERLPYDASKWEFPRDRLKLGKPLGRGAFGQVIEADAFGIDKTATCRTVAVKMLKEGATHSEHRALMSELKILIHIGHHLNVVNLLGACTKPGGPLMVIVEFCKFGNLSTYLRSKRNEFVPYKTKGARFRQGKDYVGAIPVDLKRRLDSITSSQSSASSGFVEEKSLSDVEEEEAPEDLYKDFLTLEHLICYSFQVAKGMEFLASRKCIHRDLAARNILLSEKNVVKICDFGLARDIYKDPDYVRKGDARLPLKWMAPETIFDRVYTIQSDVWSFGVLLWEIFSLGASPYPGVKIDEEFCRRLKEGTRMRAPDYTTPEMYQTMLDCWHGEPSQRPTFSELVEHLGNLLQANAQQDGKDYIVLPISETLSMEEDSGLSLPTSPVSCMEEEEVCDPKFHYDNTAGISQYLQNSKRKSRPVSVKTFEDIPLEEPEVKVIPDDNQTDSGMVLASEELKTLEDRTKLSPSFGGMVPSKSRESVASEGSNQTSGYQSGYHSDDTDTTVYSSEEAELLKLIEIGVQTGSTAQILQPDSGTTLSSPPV
Outline: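 Ten compound concentrations (3% DMSO final) were pre-plated, then KDR (790-1356) with biotinylated peptide in Mg/Mn/DTT buffer was added; ATP at Km (4.0 μM) started a 40 min room-temperature reaction. Detection used Eu-TK antibody and SA-XL665 in EDTA buffer; activity normalized to DMSO and reference inhibitor, IC50 by logistic fit.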

[3] = biological target: Met (phospho-Met, HGF-stimulated PC-3 prostate cancer cells) (Homo sapiens (Human), UniProt P08581); experiment: Met autophosphorylation ELISA in PC-3 cells (Example F); format: cell-based; settings: cellular activity; Met autophosphorylation ELISA in PC-3 cells; read-out: c-Met IC50
Sequence of Met (phospho-Met, HGF-stimulated PC-3 prostate cancer cells) (P08581 25-1390): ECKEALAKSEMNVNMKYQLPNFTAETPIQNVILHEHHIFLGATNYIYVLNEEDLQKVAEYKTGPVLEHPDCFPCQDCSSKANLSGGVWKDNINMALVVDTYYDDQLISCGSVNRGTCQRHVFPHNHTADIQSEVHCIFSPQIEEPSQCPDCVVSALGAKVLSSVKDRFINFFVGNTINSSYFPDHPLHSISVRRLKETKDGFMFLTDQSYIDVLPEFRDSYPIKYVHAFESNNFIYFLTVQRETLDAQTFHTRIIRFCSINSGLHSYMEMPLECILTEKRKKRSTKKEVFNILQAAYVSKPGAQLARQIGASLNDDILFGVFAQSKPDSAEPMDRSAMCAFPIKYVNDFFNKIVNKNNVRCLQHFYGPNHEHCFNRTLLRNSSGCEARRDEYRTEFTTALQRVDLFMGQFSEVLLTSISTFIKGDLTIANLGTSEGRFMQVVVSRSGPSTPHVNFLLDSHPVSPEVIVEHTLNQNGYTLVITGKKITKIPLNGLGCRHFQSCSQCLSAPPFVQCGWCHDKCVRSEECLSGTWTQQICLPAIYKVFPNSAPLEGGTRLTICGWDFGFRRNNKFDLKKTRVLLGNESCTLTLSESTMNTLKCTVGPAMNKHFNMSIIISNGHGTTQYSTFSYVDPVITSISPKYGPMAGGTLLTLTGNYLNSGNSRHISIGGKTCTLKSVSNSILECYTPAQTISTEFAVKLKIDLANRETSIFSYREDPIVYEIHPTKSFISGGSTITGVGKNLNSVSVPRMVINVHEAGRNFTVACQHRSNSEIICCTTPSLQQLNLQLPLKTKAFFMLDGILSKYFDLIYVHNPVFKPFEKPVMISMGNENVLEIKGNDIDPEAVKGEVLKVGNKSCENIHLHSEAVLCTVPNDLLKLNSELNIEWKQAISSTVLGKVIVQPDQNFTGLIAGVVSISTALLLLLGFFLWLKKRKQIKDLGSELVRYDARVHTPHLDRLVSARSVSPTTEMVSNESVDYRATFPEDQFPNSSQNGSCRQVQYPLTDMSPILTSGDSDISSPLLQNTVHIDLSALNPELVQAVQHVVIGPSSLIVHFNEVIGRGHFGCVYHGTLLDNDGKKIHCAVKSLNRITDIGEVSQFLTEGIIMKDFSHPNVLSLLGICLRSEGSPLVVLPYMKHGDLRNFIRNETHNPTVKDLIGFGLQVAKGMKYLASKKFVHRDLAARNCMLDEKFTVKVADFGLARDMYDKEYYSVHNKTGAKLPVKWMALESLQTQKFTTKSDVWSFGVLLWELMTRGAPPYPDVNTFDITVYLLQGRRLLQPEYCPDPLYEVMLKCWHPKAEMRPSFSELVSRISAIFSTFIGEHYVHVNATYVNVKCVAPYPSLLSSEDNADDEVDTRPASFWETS
Outline: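 Compounds were tested on HGF-stimulated PC-3 cells. After 24 h culture and 3 h serum starvation, cells got compound for 1 h and 100 ng/mL HGF for 10 min, and Met tyrosine phosphorylation was measured by ELISA.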

[4] = biological target: Human MER (residues 528-999) (Homo sapiens (Human), UniProt Q12866); experiment: Human Mer kinase assay, HTRF KinEase (Example C-2); format: biochemical; settings: protocol of Example C-2 (other compounds)
Sequence of Human MER (residues 528-999) (Q12866 528-999): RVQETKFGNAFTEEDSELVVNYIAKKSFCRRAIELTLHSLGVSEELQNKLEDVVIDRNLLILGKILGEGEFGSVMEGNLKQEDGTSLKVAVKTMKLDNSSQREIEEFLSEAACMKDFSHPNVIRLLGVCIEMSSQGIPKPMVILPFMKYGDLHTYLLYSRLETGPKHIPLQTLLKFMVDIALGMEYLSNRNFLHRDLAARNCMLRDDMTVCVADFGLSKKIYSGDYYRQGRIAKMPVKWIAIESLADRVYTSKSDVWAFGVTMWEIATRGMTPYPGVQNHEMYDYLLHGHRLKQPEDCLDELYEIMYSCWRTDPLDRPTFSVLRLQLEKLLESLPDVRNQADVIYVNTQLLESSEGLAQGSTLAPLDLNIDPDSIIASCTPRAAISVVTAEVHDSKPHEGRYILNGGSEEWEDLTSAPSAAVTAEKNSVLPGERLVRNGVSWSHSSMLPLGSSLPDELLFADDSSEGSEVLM
Outline: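 HTRF KinEase TK assay with MER 528-999 (1 ng/well) in enzymatic buffer plus 5 mM MgCl2 and 1 mM DTT, biotinylated peptide substrate and ATP at Km (40 μM), 3% DMSO final, 60 min at room temperature. Stopped with EDTA detection mix (SA-XL665, TK antibody-Eu3+), read at 665/620 nm after 60 min; IC50 from 10-point 4-parameter fit, normalized to DMSO and 1 μM reference.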

Sequence of Mer (phospho-Mer, MERTK-transfected 293A cells) (Q12866 21-999): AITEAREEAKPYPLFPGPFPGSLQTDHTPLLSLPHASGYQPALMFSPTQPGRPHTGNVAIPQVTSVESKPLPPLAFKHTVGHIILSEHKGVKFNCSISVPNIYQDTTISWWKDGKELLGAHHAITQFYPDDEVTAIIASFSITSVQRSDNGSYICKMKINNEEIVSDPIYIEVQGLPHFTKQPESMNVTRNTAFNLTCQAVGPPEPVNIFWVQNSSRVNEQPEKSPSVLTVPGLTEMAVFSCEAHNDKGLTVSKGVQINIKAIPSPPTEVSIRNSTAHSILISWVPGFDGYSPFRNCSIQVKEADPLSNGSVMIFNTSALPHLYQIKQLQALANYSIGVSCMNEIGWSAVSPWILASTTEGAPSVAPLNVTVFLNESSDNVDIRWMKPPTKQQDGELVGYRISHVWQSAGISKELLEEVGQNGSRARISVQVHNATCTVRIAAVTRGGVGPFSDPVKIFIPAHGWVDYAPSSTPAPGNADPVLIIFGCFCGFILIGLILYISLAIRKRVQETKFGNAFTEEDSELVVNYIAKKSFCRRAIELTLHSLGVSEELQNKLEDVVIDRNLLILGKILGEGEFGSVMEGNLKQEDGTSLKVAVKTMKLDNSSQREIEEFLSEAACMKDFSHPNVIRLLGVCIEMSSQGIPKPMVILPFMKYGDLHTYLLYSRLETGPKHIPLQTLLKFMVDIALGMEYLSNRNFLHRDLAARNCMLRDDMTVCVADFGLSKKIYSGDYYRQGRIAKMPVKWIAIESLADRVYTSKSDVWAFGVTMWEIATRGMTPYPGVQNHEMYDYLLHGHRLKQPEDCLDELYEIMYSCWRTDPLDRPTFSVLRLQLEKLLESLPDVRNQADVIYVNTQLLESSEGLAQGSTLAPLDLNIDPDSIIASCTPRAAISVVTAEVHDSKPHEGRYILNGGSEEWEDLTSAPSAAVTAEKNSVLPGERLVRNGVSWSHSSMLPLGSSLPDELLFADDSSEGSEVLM

SMILES	IC50 [1] [µM]	IC50 [2] [µM]	IC50 [3] [µM]	IC50 [4] [µM]
COc1cnc2c(Oc3ccc(NC(=O)c4nccn(-c5ccc(F)cc5)c4=O)cc3)ccnc2c1 [Compound 382, 4-(4-fluorophenyl)-N-[4-[(7-methoxy-1,5-naphthyridin-4-yl)oxy]phenyl]-3-oxopyrazine-2-carboxamide]	< 0.1	> 0.3	< 0.1	< 0.1
CCn1cc(C(=O)Nc2ccc(Oc3ccnc4cc(OC)c(OC)nc34)cc2)c(=O)c(-c2ccc(F)cc2)c1CO [Compound 272, N-[4-[(6,7-Dimethoxy-1,5-naphthyridin-4-yl)oxy]phenyl]-1-ethyl-5-(4-fluorophenyl)-6-(hydroxymethyl)-4-oxopyridine-3-carboxamide]	< 0.1	0.1 to 0.3	< 0.1	< 0.1
COc1cc2nccc(Oc3ccc(NC(=O)c4c(C)cc(C)n(-c5ccc(F)cc5)c4=O)cc3F)c2nc1OC [Compound 279, N-[4-[(6,7-Dimethoxy-1,5-naphthyridin-4-yl)oxy]-3-fluorophenyl]-1-(4-fluorophenyl)-4,6-dimethyl-2-oxopyridine-3-carboxamide]	< 0.1	< 0.1	< 0.1	< 0.1
COc1cc2nccc(Oc3ccc(NC(=O)c4cc(C(C)C)c(C)n(-c5ccc(F)cc5)c4=O)cc3F)c2nc1OC [Compound 368, N-[4-[(6,7-dimethoxy-1,5-naphthyridin-4-yl)oxy]-3-fluorophenyl]-1-(4-fluorophenyl)-6-methyl-2-oxo-5-propan-2-ylpyridine-3-carboxamide]	< 0.1	0.1 to 0.3	< 0.1	< 0.1
COc1cc2nccc(Oc3ccc(NC(=O)c4ncc(C)n(-c5ccc(F)cc5C)c4=O)cc3F)c2nc1OC [Compound 393, N-[4-[(6,7-dimethoxy-1,5-naphthyridin-4-yl)oxy]-3-fluorophenyl]-4-(4-fluoro-2-methylphenyl)-5-methyl-3-oxopyrazine-2-carboxamide]	< 0.1	< 0.1	< 0.1	< 0.1
COc1cc2nccc(Oc3ccc(NC(=O)c4cn(C)c(CO)c(-c5ccc(F)cc5C)c4=O)cc3F)c2nc1OC [Compound 282, N-[4-[(6,7-Dimethoxy-1,5-naphthyridin-4-yl)oxy]-3-fluorophenyl]-5-(4-fluoro-2-methylphenyl)-6-(hydroxymethyl)-1-methyl-4-oxopyridine-3-carboxamide]	< 0.1	> 0.3	< 0.1	< 0.1
COc1ccc2nccc(Oc3ccc(NC(=O)c4c(C)nc(C)c(-c5ccc(F)cc5)c4O)cc3)c2n1 [Compound 340, 5-(4-fluorophenyl)-4-hydroxy-N-[4-[(6-methoxy-1,5-naphthyridin-4-yl)oxy]phenyl]-2,6-dimethylpyridine-3-carboxamide]	< 0.1	< 0.1	< 0.1	< 0.1
COc1cc2nccc(Oc3ccc(NC(=O)c4nn(C(C)C)c(C)c(-c5ccc(F)cc5)c4=O)cc3F)c2nc1OC [Compound 364, N-[4-[(6,7-dimethoxy-1,5-naphthyridin-4-yl)oxy]-3-fluorophenyl]-5-(4-fluorophenyl)-6-methyl-4-oxo-1-propan-2-ylpyridazine-3-carboxamide]	< 0.1	< 0.1	< 0.1	< 0.1
Cc1cc(C)n(-c2ccc(F)cc2)c(=O)c1C(=O)Nc1ccc(Oc2ccnc3cccnc23)c(F)c1 [Compound 295, N-[3-Fluoro-4-(1,5-naphthyridin-4-yloxy)phenyl]-1-(4-fluorophenyl)-4,6-dimethyl-2-oxopyridine-3-carboxamide]	< 0.1	< 0.1	< 0.1	< 0.1
COc1cc2nccc(Oc3ccc(NC(=O)c4cccn(-c5ccc(F)cc5)c4=O)cc3F)c2nc1OC [Compound 293, N-[4-[(6,7-Dimethoxy-1,5-naphthyridin-4-yl)oxy]-3-fluorophenyl]-1-(4-fluorophenyl)-2-oxopyridine-3-carboxamide]	< 0.1	< 0.1	< 0.1	< 0.1

Other lines, results leading:

IC50 [1] [µM]	IC50 [2] [µM]	IC50 [3] [µM]	IC50 [4] [µM]	SMILES
< 0.1	0.1 to 0.3	< 0.1	< 0.1	COc1ccc2nccc(Oc3ccc(NC(=O)c4ccc(C)n(-c5ccc(F)cc5)c4=O)cc3F)c2c1 [Compound 346, N-[3-fluoro-4-(6-methoxyquinolin-4-yl)oxyphenyl]-1-(4-fluorophenyl)-6-methyl-2-oxopyridine-3-carboxamide]
< 0.1	0.1 to 0.3	< 0.1	< 0.1	COc1cc2nccc(Oc3ccc(NC(=O)c4nccn(-c5ccc(F)cc5)c4=O)cc3)c2nc1OC [Compound 384, N-[4-[(6,7-dimethoxy-1,5-naphthyridin-4-yl)oxy]phenyl]-4-(4-fluorophenyl)-3-oxopyrazine-2-carboxamide]
< 0.1	< 0.1	< 0.1	< 0.1	CCn1cc(C(=O)Nc2ccc(Oc3ccnc4cc(OC)c(OC)nc34)c(F)c2)c(=O)c(-c2ccc(F)cc2)c1CO [Compound 271, N-[4-[(6,7-Dimethoxy-1,5-naphthyridin-4-yl)oxy]-3-fluorophenyl]-1-ethyl-5-(4-fluorophenyl)-6-(hydroxymethyl)-4-oxopyridine-3-carboxamide]
< 0.1	> 0.3	< 0.1	< 0.1	COc1cc2nccc(Oc3ccc(NC(=O)C4=C5CCCN5CC(c5ccc(F)cc5)C4=O)cc3F)c2nc1OC (racemic) [Compound 373, N-[4-[(6,7-dimethoxy-1,5-naphthyridin-4-yl)oxy]-3-fluorophenyl]-6-(4-fluorophenyl)-7-oxo-2,3,5,6-tetrahydro-1H-indolizine-8-carboxamide]
< 0.1	0.1 to 0.3	< 0.1	< 0.1	CCOc1c(C(=O)Nc2ccc(Oc3ccnc4cc(OC)c(OC)nc34)c(F)c2)c(=O)c(-c2ccc(F)cc2)c(C)n1C [Compound 369, N-[4-[(6,7-dimethoxy-1,5-naphthyridin-4-yl)oxy]-3-fluorophenyl]-2-ethoxy-5-(4-fluorophenyl)-1,6-dimethyl-4-oxopyridine-3-carboxamide]
< 0.1	> 0.3	< 0.1	< 0.1	COc1cc2nccc(Oc3ccc(NC(=O)c4cn(C)c(C)c(-c5ccc(F)cc5)c4=O)c(F)c3)c2nc1OC [Compound 389, N-[4-[(6,7-dimethoxy-1,5-naphthyridin-4-yl)oxy]-2-fluorophenyl]-5-(4-fluorophenyl)-1,6-dimethyl-4-oxopyridine-3-carboxamide]
< 0.1	0.1 to 0.3	< 0.1	< 0.1	COc1ccc2nccc(Oc3ccc(NC(=O)c4cnc(C)c(-c5ccc(F)cc5)c4O)cc3F)c2c1 [Compound 347, N-[3-fluoro-4-(6-methoxyquinolin-4-yl)oxyphenyl]-5-(4-fluorophenyl)-4-hydroxy-6-methylpyridine-3-carboxamide]
< 0.1	> 0.3	< 0.1	< 0.1	COc1ccc2nccc(Oc3ccc(NC(=O)c4cn(C)c(C)c(-c5ccc(F)cc5)c4=O)cc3)c2n1 [Compound 356, 5-(4-fluorophenyl)-N-[4-[(6-methoxy-1,5-naphthyridin-4-yl)oxy]phenyl]-1,6-dimethyl-4-oxopyridine-3-carboxamide]
